Measured values: patent US20260276625A1, “SCREENING METHOD FOR COMPOUND INDUCING AUTOPHAGY” (TOHOKU UNIVERSITY, priority 2023, published 2026)

Columns and labels:
Assay type in all cases: cell-based
[1] = molecular target: T1, RFP-DDX5 (Homo sapiens, UniProt P17844+P62942); assay: Droplet formation, live cell imaging of HeLa cells expressing GFP-FKBP12 and RFP-DDX5, 1,6-hexanediol; settings: 10 μM, 13 hours; disappeared after addition of 5% 1,6-hexanediol
T1 construct: expressed in transfected cells; host or cells: HeLa
T1 sequence (P17844 whole entry): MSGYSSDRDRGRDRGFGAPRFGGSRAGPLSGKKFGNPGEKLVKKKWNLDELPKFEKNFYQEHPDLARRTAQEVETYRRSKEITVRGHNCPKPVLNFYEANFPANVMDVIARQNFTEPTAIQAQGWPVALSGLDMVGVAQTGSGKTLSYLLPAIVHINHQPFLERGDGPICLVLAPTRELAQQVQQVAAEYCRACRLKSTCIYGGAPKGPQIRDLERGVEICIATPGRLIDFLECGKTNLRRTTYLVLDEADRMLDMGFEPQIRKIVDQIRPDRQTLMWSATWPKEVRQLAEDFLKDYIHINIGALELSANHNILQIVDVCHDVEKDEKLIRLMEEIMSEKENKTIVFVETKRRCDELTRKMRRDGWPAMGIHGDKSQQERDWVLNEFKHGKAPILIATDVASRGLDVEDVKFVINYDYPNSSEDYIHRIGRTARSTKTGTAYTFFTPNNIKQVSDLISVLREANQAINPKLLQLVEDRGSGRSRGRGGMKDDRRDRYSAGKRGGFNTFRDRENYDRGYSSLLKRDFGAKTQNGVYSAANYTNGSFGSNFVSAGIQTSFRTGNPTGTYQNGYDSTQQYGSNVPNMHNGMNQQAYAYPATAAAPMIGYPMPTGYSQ
T1 sequence (P62942 whole entry): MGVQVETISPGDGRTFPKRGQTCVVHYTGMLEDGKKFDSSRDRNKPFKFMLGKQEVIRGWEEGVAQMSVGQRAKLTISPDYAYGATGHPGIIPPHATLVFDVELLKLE
Description: (§1) HeLa cells transiently expressing GFP-FKBP12 and RFP-DDX5, or GFP-FKBP12 and RFP-p62 were treated with AUTAC2-2G added in such an amount as to achieve a concentration of 10 μM for 13 hours. The treated cells were subjected to live cell imaging by a fluorescence microscope, and fluorescence derived from GFP and RFP was continuously observed. On the way, 5% 1,6-hexanediol was added 5 minutes after the start of observation to observe whether a dot-like structure in the field of view disappeared.
(§2) 1,6-Hexanediol is known to have an action of eliminating droplets, and this makes it possible to confirm whether the dot-like structure in the field of view of the microscope is a droplet.

[2] = molecular target: T2, RFP-p62 (Homo sapiens, UniProt P62942+Q13501); assay: Droplet formation, live cell imaging of HeLa cells expressing GFP-FKBP12 and RFP-p62, 1,6-hexanediol; settings: 10 μM, 13 hours; disappeared after addition of 5% 1,6-hexanediol
T2 construct: expressed in transfected cells; host or cells: HeLa
T2 sequence (Q13501 whole entry): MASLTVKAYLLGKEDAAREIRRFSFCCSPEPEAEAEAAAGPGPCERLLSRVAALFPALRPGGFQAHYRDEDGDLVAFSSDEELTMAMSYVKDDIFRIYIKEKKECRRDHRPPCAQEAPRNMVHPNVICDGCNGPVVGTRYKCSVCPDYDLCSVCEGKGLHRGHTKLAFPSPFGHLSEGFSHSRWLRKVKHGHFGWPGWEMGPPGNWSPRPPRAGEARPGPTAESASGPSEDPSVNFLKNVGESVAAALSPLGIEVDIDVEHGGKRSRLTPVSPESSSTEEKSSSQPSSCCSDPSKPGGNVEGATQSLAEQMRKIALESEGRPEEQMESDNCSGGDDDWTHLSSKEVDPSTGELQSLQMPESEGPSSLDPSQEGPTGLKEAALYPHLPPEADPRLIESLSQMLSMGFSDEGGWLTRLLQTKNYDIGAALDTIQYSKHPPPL
T2 sequence (P62942 whole entry): as the sequence (P62942 whole entry) above
Description: as §1, §2

[3] = molecular target: T3, GFP-αSyn-FKBP^F36V (Homo sapiens, UniProt P62942, F37V); assay: Mutant FKBP-tagged synuclein degradation test (GFP fluorescence microscopy, HeLa cells); settings: 48 hours, compared with untreated group (DMSO)
T3 construct: expressed in transfected cells; host or cells: HeLa
T3 sequence (P62942 whole entry F37V): as the sequence (P62942 whole entry) above, with F37V counted along it
Description: HeLa cells transiently expressing GFP-α-synuclein tagged with a mutant FKBP (GFP-αSyn-FKBP^F36V) were treated with SLF′-AUTAC for 48 hours. In each of the wells of non-treated cells and treated cells, GFP fluorescence was photographed with a fluorescence microscope. Degradation of GFP-αSyn-FKBP^F36V was evaluated from the GFP fluorescence intensity.

[4] = molecular target: T4, DDX5 and p62 (Homo sapiens, UniProt P17844); assay: Droplet formation of DDX5 and p62, immunostaining of HeLa cells expressing GFP-FKBP^F36V; settings: 1 μM, 12 hours, fixed cells, anti-DDX5 and anti-p62 antibody
T4 construct: endogenous in cells; host or cells: HeLa (transiently expressing GFP-FKBP^F36V)
T4 sequence (P17844 whole entry): as the sequence (P17844 whole entry) above
T4 sequence (Q13501 2-440 partner): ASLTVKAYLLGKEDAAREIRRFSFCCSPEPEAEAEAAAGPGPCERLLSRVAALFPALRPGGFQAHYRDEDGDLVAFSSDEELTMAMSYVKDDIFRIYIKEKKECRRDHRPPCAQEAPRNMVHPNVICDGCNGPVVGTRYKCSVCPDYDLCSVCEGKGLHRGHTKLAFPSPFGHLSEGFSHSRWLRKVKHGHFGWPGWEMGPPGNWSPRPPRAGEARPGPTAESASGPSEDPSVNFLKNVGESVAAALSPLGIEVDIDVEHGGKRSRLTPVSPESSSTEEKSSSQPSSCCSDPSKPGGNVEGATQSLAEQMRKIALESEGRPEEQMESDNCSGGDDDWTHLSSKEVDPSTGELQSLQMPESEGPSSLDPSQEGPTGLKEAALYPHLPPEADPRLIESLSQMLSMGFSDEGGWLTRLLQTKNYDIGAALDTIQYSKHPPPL
T4 sequence (P62942 2-108 F37V partner): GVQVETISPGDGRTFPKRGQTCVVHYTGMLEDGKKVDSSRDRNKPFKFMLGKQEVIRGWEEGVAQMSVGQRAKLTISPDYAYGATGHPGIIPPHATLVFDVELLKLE
Source text: Such a “droplet” can be confirmed by labeling a DEAD-box RNA helicase and/or p62 with a fluorescent label or the like, introducing a test compound into a system in which they exist, preferably treating cells expressing at least one of these with the test compound, and observing the presence of a substance visualized by the label with a fluorescence microscope or the like. In addition, for the purpose of confirming the properties of the liquid in more detail, it is preferable to combine this method with the fluorescence recovery after photobleaching (FRAP).
HeLa cells transiently expressing GFP tagged with a mutant FKBP (GFP-FKBP^F36V) were treated with 1 μM SLF′-AUTAC for 12 hours. The treated cells were fixed with 4% paraformaldehyde, then permeabilized with 0.1% TritonX-100/PBS, blocked with 1% BSA/PBS, immersed in PBS containing 1% rabbit-derived anti-DDX5 antibody and 1% mouse-derived anti-p62 antibody, and incubated at 4° C. overnight. Subsequently, the cells were immersed in PBS containing 1% AlexaFluor555-labeled anti-rabbit IgG and 1% AlexaFluor555-labeled anti-mouse IgG, and incubated at rccm temperature for 1 hour.

Row | SMILES | dot-like structure (droplet) containing GFP-FKBP12 and RFP-DDX5 [1] | dot-like structure (droplet) containing GFP-FKBP12 and RFP-p62 [2] | degradation of GFP-αSyn-FKBP^F36V (GFP fluorescence intensity) ([3]; 1 μM) | degradation of GFP-αSyn-FKBP^F36V (GFP fluorescence intensity) ([3]; 10 μM) | formation of a droplet containing DDX5 and p62 [4]
1 | CCC(C)(C)C(=O)C(=O)N1CCCC[C@H]1C(=O)O[C@H](CCc1ccc(OC)c(OC)c1)c1cccc(NC(=O)CCC(=O)NCCCOCCOCCOCCCn2cc(-c3nc4c(=O)[nH]c(N)nc4n3Cc3ccc(F)cc3)cn2)c1 [AUTAC2-2G] | a dot-like structure containing GFP-FKBP12 and RFP-DDX5 | a dot-like structure containing GFP-FKBP12 and RFP-p62 were observed |  |  | 
2 | CC[C@H](C(=O)N1CCCC[C@H]1C(=O)O[C@H](CCc1ccc(OC)c(OC)c1)c1cccc(OCC(=O)NCCCOCCOCCOCCCn2cc(-c3nc4c(=O)[nH]c(N)nc4n3Cc3ccc(F)cc3)cn2)c1)c1cc(OC)c(OC)c(OC)c1 [SLF′-AUTAC] |  |  | the degradation of GFP-αSyn-FKBP^F36V was observed | the degradation of GFP-αSyn-FKBP^F36V was observed | DDX5 and p62 formed droplets in the cells
